# Reference: US20170165253A1, “TREATMENT OF SEXUAL DYSFUNCTION AND FOR IMPROVED SEXUAL QUALITY OF LIFE” (ReJoy, priority 2015, published 2017)
# Several values for one entry are separate records, joined by “and”; a condition that tells them apart may be missing. Equal entries are not always repeated. Structures can show the parent of a compound that is named as a salt.
# What was measured:
# [1] = system: skin on the subjects forearm; assay: pH pilot study, pilomotor effect on forearm skin (Example 6); assay type: in vivo, human; conditions: 10% solution
# Method: A pilot study was conducted to assess the optimal pH of topical phenylephrine solution required to elicit smooth muscle contraction on the skin. A series of 10% phenylephrine solutions were prepared in phosphate buffer solutions of varied pH. pH 4.6, 4.8, 5.0, 5.2, 5.4, 5.6, 5.8, 6.0, 6.2, 6.4, and 6.6 were used. Areas of skin on the subjects forearm were marked with a surgical pen. 50 microliter of each solution were applied to the marked area of skin and allowed to dry. After one hour the sites of application were visually inspected for the appearance of the pilomotor effect (i.e., “goose bumps”).
# [2] = Blood pressure and heart rate after topical application on the nipple-areola complex (Example 2); assay type: in vivo, human
# Method: A study of the blood pressure and heart rate of five patients receiving topical application on the nipple-areola complex was made. The composition applied was 0.1 mL of a 10% phenylephrine solution for a total dosage of 10 mg phenylephrine HCl. Blood pressure and heart rate were measured at baseline (T=0), after 15 minutes and 30 minutes.
# [3] = IVRT Franz cell skin penetration, excised pig skin; assay type: in vitro ADME
# [4] = Heart rate, blood pressure and adverse events in Example 12; assay type: in vivo, human; conditions: for Delta HR t = 15: 15 minutes; for Delta HR t = 15 / Delta HR t = 30 / Delta HR t = 60: single patients, Hydrochloride; for Delta HR t = 30: 30 minutes; for Delta HR t = 60: 60 minutes
# Method: 20 healthy, pre-menopausal females were recruited to the study. Subjects were instructed to apply either 4 or 6 drops of an investigational drug to each nipple areola complex. Baseline blood-pressure, heart rate, nipple erection, nipple sensitivity, genital lubrication and arousal were measured and recorded. […]
# nipple areola complex = assay: Blinded study of 10%, 15%, 20% phenylephrine on the NAC: erection, sensitivity, lubrication, arousal (Example 12); assay type: in vivo, human; conditions: for Arousal / Lubrication: 60 minutes, change from baseline; for Responders, Arousal / Responders, Lubrication: 20 patients; for Erection: 1 = erection reported
# Method: 20 healthy, pre-menopausal females were recruited to the study. Subjects were instructed to apply either 4 or 6 drops of an investigational drug to each nipple areola complex. Baseline blood-pressure, heart rate, nipple erection, nipple sensitivity, genital lubrication and arousal were measured and recorded. 30 minutes later, blood pressure and heart rate were measured and recorded. 60 minutes later, blood-pressure, heart rate, nipple erection, nipple sensitivity, genital lubrication and arousal were measured and recorded.
# During the study, four parameters of efficacy were measured: nipple erection, nipple sensitivity, genital lubrication, and arousal. Efficacy parameters were all patient reported outcomes measured at 0 and 60 minutes after the application of the investigational drug. Nipple erection was determined by asking the patient if they had experienced nipple erection during the 60 minutes after the application of the investigational drug. Nipple sensitivity was measured with a Likert scale of 1-10 (1 being “insensitive”, 10 being “extremely sensitive/bordering on pain”) at 0 and 60 minutes after the application of the investigational drug. Genital lubrication was measured with a Likert scale of 1-10 (1 being “none”, 10 being “excellent”) at 0 and 60 minutes after the application of the investigational drug. Arousal was measured with a Likert scale of 1-10 (1 being “none”, 10 being “extremely aroused”) at 0 and 60 minutes after the application of the investigational drug.
# After a 48-hour washout period, subjects repeated the procedure using 4 or 6 drops of a new arm of the study. The subjects and the investigator were blinded to the drug assignment in each arm. In total 6 arms were tested:
# Nipple erection data was scored “1” for a positive response to the question “Did you experience nipple erection after applying the solution?” It was scored “0” otherwise. Sensitivity data was tabulated by subtracting the patient reported nipple sensitivity at 60 minutes from the reported value at baseline. Subjects were asked to rate their level of nipple sensitivity on a scale of 1-10 (1 being “non-sensitive” and 10 being “extremely sensitive, bordering on pain.”) Subjects reporting a sensitivity increase greater than 2 after the application of each investigational drug were considered sensitivity responders.
# Genital lubrication was measured with a Likert scale of 1-10 (1 being “none” and 10 being “excellent”) at 0 and 60 minutes after the application of the investigational drug. Arousal was measured with a Likert scale of 1-10 (1 being “none” and 10 being “extremely aroused”) at 0 and 60 minutes after the application of the investigational drug. […] A subject was considered a responder for genital lubrication if they reported a change in genital lubrication of 2 or more.
# A subject was considered a responder for arousal if they reported a change in arousal of 2 or more.
# arrector pili muscle = conditions: 1% w/v, iontophoresis; cited from earlier work
# [5] = 0.1 mL 10% solution on NAC, 15 minutes, single subjects, listed as PHCI, Hydrochloride
# [6] = 0.1 mL 10% solution on NAC, 30 minutes, single subjects, listed as PHCI, Hydrochloride
# [7] = 10% (Arm C), change of 2 or more
# [8] = 15% (Arm D), single patients, Hydrochloride
# [9] = 20% (Arm B), single patients, Hydrochloride
smiles,measurement,setting,value
"CNC[C@H](O)c1cccc(O)c1 [Phenylephrine HCl, Phenylephrine Hydrochloride]",Results after 1 hour (pilomotor effect),"[1]; pH 4.6, 50 microliter on forearm",None
same,Results after 1 hour (pilomotor effect),[1]; pH 4.8,Slight
same,Results after 1 hour (pilomotor effect),[1]; pH 5.0,Strong
same,Results after 1 hour (pilomotor effect),[1]; pH 5.2,Strong
same,Results after 1 hour (pilomotor effect),[1]; pH 5.4,Strong
same,Results after 1 hour (pilomotor effect),[1]; pH 5.6,Slight
same,Results after 1 hour (pilomotor effect),[1]; pH 5.8,Slight
same,Results after 1 hour (pilomotor effect),[1]; pH 6.0,None
same,Results after 1 hour (pilomotor effect),[1]; pH 6.2,None
same,Results after 1 hour (pilomotor effect),[1]; pH 6.4,None
same,Results after 1 hour (pilomotor effect),[1]; pH 6.6,None
same,BP (T = 15),[2]; [5],112/76 and 122/77 and 117/72 and 120/72 and 99/67
same,HR (T = 15),[2]; [5],69 and 77 and 75 and 53 and 68
same,BP (T = 30),[2]; [6],117/75 and 122/78 and 128/77 and 116/68 and 97/63
same,HR (T = 30),[2]; [6],74 and 80 and 68 and 58 and 69
same,change in blood pressure or heart rate,"[2]; 0.1 mL 10% solution, five patients, 15 and 30 minutes",No significant change in blood pressure or heart rate
same,total absorption over 24 hours,"[3]; 0.1 mL of 10% solution per NAC, both NAC",16.6 mg
same,less systemic exposure compared to the oral OTC drug,[3]; topical dosage vs one 10 mg oral tablet every 4 hours,approximately 45%
same,Delta HR t = 15,"[4]; 10% Arm C, four drops (0.114 mL) per NAC",−3 (2×) and −10 and 3 (4×) and −7 and 0 (3×) and −1 (2×) and −2 (3×) and 4 and −9 and 6 and −5
same,Delta HR t = 30,"[4]; 10% Arm C, four drops",−2 and −12 and 13 and −7 (3×) and −3 (2×) and −1 (2×) and 5 and 7 (2×) and 3 (2×) and −4 (3×) and 0 (2×)
same,Delta HR t = 60,"[4]; 10% Arm C, four drops",−2 (2×) and −7 and −1 (3×) and −6 (2×) and −4 (4×) and 5 (2×) and −8 and 7 and 2 (2×) and −9 and −10
same,Delta HR t = 15,"[4]; 15% (Arm D), four drops",−9 (4×) and 1 (2×) and 0 and −4 (2×) and −6 and 4 and −15 and −8 and −5 and −3 (3×) and 6 and −1 and −2
same,Delta HR t = 30,"[4]; 15% (Arm D), four drops",−14 and 4 (2×) and 0 and −1 and −2 (3×) and 6 and −10 (2×) and −4 and −5 and 2 and −12 and 8 and 5 and 1 and 3 and −8
same,Delta HR t = 60,"[4]; 15% (Arm D), four drops",−16 and 4 and −6 (3×) and −2 (4×) and −4 and −7 and −9 and 1 and −3 (2×) and 0 (2×) and −10 and 2 and −11
same,Delta HR t = 15,"[4]; 20% (Arm B), four drops",−15 and 3 and −2 (2×) and −1 (2×) and −6 (2×) and 2 and −4 (2×) and −10 and 6 and 1 and −7 and −5 and 10 and −3 and 7 and 0
same,Delta HR t = 30,"[4]; 20% (Arm B), four drops",−20 and 4 and −6 and −14 and −3 (2×) and 7 (2×) and 1 (3×) and −1 (2×) and −7 and 10 (2×) and −9 (2×) and 3 and 6
same,Delta HR t = 60,"[4]; 20% (Arm B), four drops",−21 (2×) and 3 and 1 and −13 and 6 and −1 and 0 (2×) and −8 and −6 (2×) and 4 (2×) and −3 (2×) and −4 and 11 and 9 and −2
same,adverse event,[4]; 20% arm,one adverse event (nipple pain)
same,changes in blood pressure or heart rate,"[4]; all arms, 10-20%",no changes in blood pressure or heart rate
same,"Percent responders, Arousal",nipple areola complex; 10% (Arm C),0%
same,"Percent responders, Lubrication",nipple areola complex; 10% (Arm C),5%
same,Arousal,"nipple areola complex; 10% (Arm C), Likert 1-10, single patients",0
same,Lubrication,"nipple areola complex; 10% (Arm C), Likert 1-10, single patients, Hydrochloride",0 (17×) and 1 (2×) and 2
same,"Responders, Arousal",nipple areola complex; [7],0
same,"Responders, Lubrication",nipple areola complex; [7],1
same,"% Responders, Erection","nipple areola complex; 10%, four drops",37%
same,"% Responders, Sensitivity","nipple areola complex; 10%, four drops",16%
same,Erection,"nipple areola complex; 10%, four drops (0.114 mL) per NAC, 0 otherwise, single patients, listed as PE, Hydrochloride",0 (11×) and 1 (8×)
same,"Responders, Erection","nipple areola complex; 10%, four drops, 19 patients",7
same,"Responders, Sensitivity","nipple areola complex; 10%, four drops, 19 patients",3
same,Sensitivity,"nipple areola complex; 10%, four drops, change baseline to 60 minutes, scale 1-10, single patients, listed as PE, Hydrochloride",1 (7×) and 0 (9×) and 5 and 2 (2×)
same,"% Responders, Erection","nipple areola complex; 10%, six drops",50%
same,"% Responders, Sensitivity","nipple areola complex; 10%, six drops",44%
same,Erection,"nipple areola complex; 10%, six drops (0.170 mL) per NAC, single patients, listed as PE, Hydrochloride",1 (8×) and 0 (8×)
same,"Responders, Erection","nipple areola complex; 10%, six drops, 16 patients",8
same,"Responders, Sensitivity","nipple areola complex; 10%, six drops, 16 patients",7
same,Sensitivity,"nipple areola complex; 10%, six drops, change baseline to 60 minutes, scale 1-10, single patients, listed as PE, Hydrochloride",4 (2×) and 0 (6×) and 1 (3×) and 3 (2×) and 2 (3×)
same,"Percent responders, Arousal",nipple areola complex; 15% (Arm D),0%
same,"Percent responders, Lubrication",nipple areola complex; 15% (Arm D),10%
same,"Responders, Arousal",nipple areola complex; 15% (Arm D),0
same,"Responders, Lubrication",nipple areola complex; 15% (Arm D),2
same,Arousal,nipple areola complex; [8],0 (19×) and −1
same,Lubrication,nipple areola complex; [8],0 (15×) and 2 and 1 (3×) and 3
same,"% Responders, Erection","nipple areola complex; 15%, four drops",42%
same,"% Responders, Sensibility","nipple areola complex; 15%, four drops",53%
same,"Responders, Erection","nipple areola complex; 15%, four drops, 19 patients",8
same,"Responders, Sensibility","nipple areola complex; 15%, four drops, 19 patients",10
same,Erection,"nipple areola complex; 15%, four drops, single patients, listed as PE, Hydrochloride",0 (11×) and 1 (8×)
same,Sensibility,"nipple areola complex; 15%, four drops, change baseline to 60 minutes, scale 1-10, single patients, listed as PE, Hydrochloride",0 (7×) and 2 (5×) and 5 and 1 (2×) and 3 (3×) and 9
same,"Percent responders, Arousal",nipple areola complex; 20% (Arm B),0%
same,"Percent responders, Lubrication",nipple areola complex; 20% (Arm B),20%
same,"Responders, Arousal",nipple areola complex; 20% (Arm B),0
same,"Responders, Lubrication",nipple areola complex; 20% (Arm B),4
same,Arousal,nipple areola complex; [9],0 (19×) and 1
same,Lubrication,nipple areola complex; [9],0 (15×) and 2 (3×) and 1 and 3
same,"% Responders, Erection","nipple areola complex; 20%, four drops",68%
same,"% Responders, Sensitivity","nipple areola complex; 20%, four drops",42%
same,"Responders, Erection","nipple areola complex; 20%, four drops, 19 patients",13
same,"Responders, Sensitivity","nipple areola complex; 20%, four drops, 19 patients",8
same,Erection,"nipple areola complex; 20%, four drops, single patients, listed as PE, Hydrochloride",1 (13×) and 0 (6×)
same,Sensitivity,"nipple areola complex; 20%, four drops, change baseline to 60 minutes, scale 1-10, single patients, listed as PE, Hydrochloride",0 (7×) and 1 (4×) and 2 (5×) and 4 (2×) and 9
same,piloerection on the forearm,arrector pili muscle,can activate the piloerection on the forearm
